Patent US20050165033A1, “Use of indole-3-acetic acids in the treatment of asthma, copd and other diseases” (priority 2002, published 2005)

What follows are molecules tested against T1, CRTh2 receptor (Homo sapiens, UniProt Q9Y5Y4) (assay: Intracellular calcium mobilisation (FLIPr, fluo-3AM), inhibition of the response to PGD2 in HEK-hrCRTh2-Gα16 cells). Conditions: antagonist affinity vs PGD2, pIC50 Cheng-Prusoff analysis, read-out: pA2 (converted).
T1 construct: expressed in transfected cells
T1 sequence (Q9Y5Y4 1-395): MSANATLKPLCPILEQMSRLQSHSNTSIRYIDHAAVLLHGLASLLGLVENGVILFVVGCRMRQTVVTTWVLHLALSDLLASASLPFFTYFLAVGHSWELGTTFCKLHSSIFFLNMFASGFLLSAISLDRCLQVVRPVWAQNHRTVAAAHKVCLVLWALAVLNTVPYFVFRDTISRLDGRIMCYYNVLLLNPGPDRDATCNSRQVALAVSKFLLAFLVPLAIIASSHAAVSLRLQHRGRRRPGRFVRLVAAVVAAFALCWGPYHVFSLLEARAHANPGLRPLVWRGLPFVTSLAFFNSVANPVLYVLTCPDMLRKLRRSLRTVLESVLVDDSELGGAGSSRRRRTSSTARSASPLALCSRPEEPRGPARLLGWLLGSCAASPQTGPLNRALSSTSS
Format: cell-based
Method: Pharmacological Data—Intracellular Calcium Mobilisation
Human Embryonic Kidney Cells co-transfected with both the CRTh2 receptor and […] G-protein (HEK-hrCRTh2-G[…]16) are routinely cultured as monolayers in Dulbecco's Modified Eagles Medium (DMEM; Sigma) supplemented with 10% (v:v) heat inactivated foetal bovine serum (New Zealand sourced; Hyclone), 1% (v:v) non-essential amino acids (Gibco BRL), 1% (v:v) penicillin/streptomycin (Gibco BRL), 2 mM L-glutamine (Gibco BRL) and grown under 1 mg/ml […] Geneticin (Gibco BRL) antibiotic selection. Approximately 24 hours prior to the assay the cells are plated at a seeding density of 100,000 cells/well in 100 µl growth media into black walled 96 well Poly-D-Lysine coated plates (Becton Dickinson), with clear bottoms to allow cell inspection and fluorescence measurements from the bottom of each well. All cultures are maintained under standard tissue culture conditions (37° C. in a humidified atmosphere of 5% CO2).
To enable changes in intracellular calcium levels to be measured in HEK-hrCRTh2-Gα16 cells fluo-3AM is utilised as the fluorescent calcium indicator. A dye loading buffer is prepared which consists of a final concentration of 5 µM Fluo-3AM fluorescent cytoplasmic calcium indicator dye (Tef Labs), 2.2 µl/ml Pluronic F127 (Molecular Probes) to promote dye uptake, and 0.5 mM brilliant black (Sigma) to reduce background fluorescence in Balanced Salt Solution (BSS; 125 mM NaCl, 5.4 mM KCl, 16.2 mM NaHCO3, 0.8 mM MgCl2, 1 mM CaCl2, 20 mM HEPES, 1 mM NaH2PO4, 5.5 mM D-(+)-Glucose, 0.1% BSA and pH 7.4 with NaOH). […]
Test compounds are made up at a stock concentration of 10 mM in DMSO. The compounds to be evaluated are then prepared, by serial dilution in BSS buffer, to the required concentrations for inhibition dose response curves to be constructed. […] This allows the potency agonist (p[A]50) value to be determined for the HEK-hrCRTh2-Gα16 cells on any given day. Once the p[A]50 for PGD2 has been determined a separate assay plate containing 2×p[A]50 of PGD2 is prepared as the 2nd addition plate (or agonist plate). […]

Row | SMILES | Kb [nM]
1 | COc1ccc2c(c1)c(CC(=O)O)c(C)n2-c1ncnc2c(Cl)cc(Cl)cc12 [1-(6,8-dichloro-4-quinazolinyl)-5-methoxy-2-methyl-1H-indole-3-acetic acid] | 1000
2 | Cc1c(CC(=O)O)c2ccccc2n1-c1ncnc2cc(Cl)ccc12 [1-(7-chloro-4-quinazolinyl)-2-methyl-1H-indole-3-acetic acid] | 1580
3 | Cc1c(CC(=O)O)c2cc(C(C)C)ccc2n1-c1ncnc2cc(Cl)ccc12 [1-(7-chloro-4-quinazolinyl)-2-methyl-5-(1-methylethyl)-1H-indole-3-acetic acid] | 158
